# EP4610269A1, “UROKINASE PLASMINOGEN ACTIVATOR SURFACE RECEPTOR (UPAR) LIGANDS FOR DIAGNOSTIC OR THERAPEUTIC USE” (3B Pharmaceuticals GmbH, priority 2024, dated 2025)
# Where two headings read alike, the source gives them in different places. Where a SMILES comes first, the peptide text is derived from it. Bridges are numbered along the chain shown (N, C = ends). [ ]: non-standard residue; d: D form. The star is where a group is joined. DOTA = O=C(O)CN1CCN(CC(=O)O)CCN(CC(=O)*)CCN(CC(=O)O)CC1; Oic = O=C(O)[C@@H]1C[C@@H]2CCCC[C@@H]2N1; Pro(cis-4-F) = O=C(O)[C@@H]1C[C@H](F)CN1; Pro(4R-NH2) = N[C@H]1CN[C@H](C(=O)O)C1; Hyp = O=C(O)[C@@H]1C[C@@H](O)CN1; Pentanoyl(4-Me) = CC(C)CCC(=O)*; 2Thi = N[C@@H](Cc1cccs1)C(=O)O; Cit = NC(=O)NCCC[C@H](N)C(=O)O; Butoxycarbonyl = CCCCOC(=O)*; dNva = CCC[C@@H](N)C(=O)O; Nle = CCCC[C@H](N)C(=O)O; Orn = NCCC[C@H](N)C(=O)O; Nva = CCC[C@H](N)C(=O)O; Hexanoyl = CCCCCC(=O)*; Pentanoyl = CCCCC(=O)*
# Legend:
# [1] = biological target: T1, uPAR-expressing HEC-265 human endometrial adenocarcinoma cells (Homo sapiens, UniProt Q03405); assay: Competitive FACS binding assay; conditions: pIC50 category of FACS binding
# T1 construct: Cell surface uPAR-expressing HEC-265 human endometrial adenocarcinoma cells; host or cells: HEC-265
# T1 sequence (Q03405 23-335): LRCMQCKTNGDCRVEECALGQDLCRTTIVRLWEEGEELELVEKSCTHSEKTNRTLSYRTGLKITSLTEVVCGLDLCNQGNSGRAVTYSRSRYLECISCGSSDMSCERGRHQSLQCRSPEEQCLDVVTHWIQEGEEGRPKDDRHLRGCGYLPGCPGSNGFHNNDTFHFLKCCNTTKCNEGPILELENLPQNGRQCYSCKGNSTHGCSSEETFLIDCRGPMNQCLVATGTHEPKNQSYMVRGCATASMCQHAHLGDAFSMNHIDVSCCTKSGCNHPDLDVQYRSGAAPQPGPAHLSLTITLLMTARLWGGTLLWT
# Method in brief: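 HEC-265 cells incubated 1 h at 4 °C with 10 nM biotinylated uPAR peptide tracer plus increasing test compound, then stained with APC-streptavidin on ice. Median APC fluorescence by flow cytometry; 4PL fit gives pIC50.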
# [2] = biological target: T2, human uPAR (uPAR-Fc) (Homo sapiens, UniProt Q03405); assay: Surface plasmon resonance (SPR) assay, single cycle kinetics; format: binding; conditions: pKD category for uPAR SPR activity assay, uPAR-Fc on Protein A-Chip, 25°C; for Kd: read-out: pKD CAT (converted)
# T2 construct: comprising amino acids Leu23-Arg303 according to UniProt entry Q03405.1; purchased R&D Systems 10378-UK-100
# T2 sequence (Q03405 23-303): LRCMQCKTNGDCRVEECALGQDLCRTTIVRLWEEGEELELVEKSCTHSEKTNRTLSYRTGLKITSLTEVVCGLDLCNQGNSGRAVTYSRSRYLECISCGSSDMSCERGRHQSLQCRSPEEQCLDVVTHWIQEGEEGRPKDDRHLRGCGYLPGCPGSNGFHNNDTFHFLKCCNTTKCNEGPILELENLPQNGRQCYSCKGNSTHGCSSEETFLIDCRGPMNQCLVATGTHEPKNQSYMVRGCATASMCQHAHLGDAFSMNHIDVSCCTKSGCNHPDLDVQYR
# Method in brief: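 uPAR-Fc (Leu23-Arg303 extracellular domains, human IgG1 Fc) captured on Protein A chip to ~2000 RU; single-cycle kinetics at 25°C in HEPES running buffer pH 7.4 with 0.1% DMSO. KD from double-referenced sensorgrams fitted to 1:1 Langmuir model, reported as pKD.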
compound,measurement,setting,value
"CCCCC(=O)N[C@H]1CSSC[C@@H](C(N)=O)NC(=O)[C@H](COC)NC(=O)[C@H]([C@@H](C)CC)NC(=O)[C@@H]2C[C@@H](O)CN2C(=O)[C@@H]2CCCN2C(=O)[C@H](Cc2ccccc2)NC(=O)[C@H](Cc2ccc(O)cc2)NC(=O)[C@H](CCCCNC(=O)CN2CCN(CC(=O)O)CCN(CC(=O)O)CCN(CC(=O)O)CC2)NC(=O)[C@H](CCCNC(N)=O)NC1=O [UPAR-380, Pent-[Cys-Cit-Lys(DOTA)-Tyr-Phe-Pro-Hyp-Ile-Ser(Me)-Cys]-NH2] (Pentanoyl-C[Cit]K(DOTA)YFP[Hyp]IS(Me)C-NH2; disulfide 1-10)",IC50,[1],≤ 10 nM
same,Kd,[2]; single cycle kinetics,1.58 to 10 nM
"CC[C@H](C)[C@@H]1NC(=O)[C@@H](C)NC(=O)[C@@H]2C[C@@H](N)CN2C(=O)[C@H](Cc2ccccc2)NC(=O)[C@H](Cc2ccc(O)cc2)NC(=O)[C@H](CCC(N)=O)NC(=O)[C@H](CCCNC(N)=O)NC(=O)[C@@H](NC(=O)CCC(C)C)CSSC[C@@H](C(N)=O)NC(=O)[C@H](CC(C)C)NC1=O [UPAR-163, iHex-[Cys-Cit-Gln-Tyr-Phe-Tap-ala-Ile-Leu-Cys]-NH2] ({Pentanoyl(4-Me)}-C[Cit]QYF[Pro(4R-NH2)][dA]ILC-NH2; disulfide 1-10)",IC50,[1],12.6 to 31.6 nM
same,Kd,[2],1.58 to 10 nM
"CC[C@H](C)[C@@H]1NC(=O)[C@@H](C)NC(=O)[C@@H]2CCCN2C(=O)[C@H](Cc2ccccc2)NC(=O)[C@H](Cc2ccc(O)cc2)NC(=O)[C@H](CCCCNC(=O)CN2CCN(CC(=O)O)CCN(CC(=O)O)CCN(CC(=O)O)CC2)NC(=O)[C@H](CCCNC(=N)N)NC(=O)[C@@H](NC(=O)[C@H](CC(C)C)NC(C)=O)CSSC[C@@H](C(N)=O)NC(=O)[C@H](CC(C)C)NC1=O [UPAR-162, Ac-Leu-[Cys-Arg-Lys(DOTA)-Tyr-Phe-Pro-ala-Ile-Leu-Cys]-NH2] (Ac-LCRK(DOTA)YFP[dA]ILC-NH2; disulfide 2-11)",IC50,[1],≤ 10 nM
same,Kd,[2],< 1.58 nM
"CCCCC(=O)N[C@H]1CSSC[C@@H](C(N)=O)NC(=O)[C@H](CCC)NC(=O)[C@H]([C@@H](C)CC)NC(=O)[C@@H]2C[C@@H]3CCCC[C@@H]3N2C(=O)[C@@H]2CCCN2C(=O)[C@H](Cc2ccccc2)NC(=O)[C@H](Cc2ccc(O)cc2)NC(=O)[C@H](CCC(N)=O)NC(=O)[C@H](CCCNC(=N)N)NC1=O [UPAR-190, Pent-[Cys-Arg-Gln-Tyr-Phe-Pro-Oic-Ile-Nva-Cys]-NH2] (Pentanoyl-CRQYFP[Oic]I[Nva]C-NH2; disulfide 1-10)",IC50,[1],12.6 to 31.6 nM
same,Kd,[2],< 1.58 nM
Pent-[Cys-Cit-Lys(InDOTA)-Tyr-Pcf-Pro-Hyp-Ile-Nva-Cys]-NH2 [UPAR-355],pIC50 CAT,[1],A (pIC50 values ≥8.0)
same,pKD CAT,[2]; single cycle kinetics,A (pKD values ≥ 8.8)
"CCCCC(=O)N[C@H]1CSSC[C@@H](C(N)=O)NC(=O)[C@H](CCC)NC(=O)[C@H]([C@@H](C)CC)NC(=O)[C@@H]2C[C@@H](O)CN2C(=O)[C@@H]2CCCN2C(=O)[C@H](Cc2ccccc2)NC(=O)[C@H](Cc2c[nH]cn2)NC(=O)[C@H](CCCCNC(=O)CN2CCN(CC(=O)O)CCN(CC(=O)O)CCN(CC(=O)O)CC2)NC(=O)[C@H](CCCNC(N)=O)NC1=O [UPAR-324, Pent-[Cys-Cit-Lys(DOTA)-His-Phe-Pro-Hyp-Ile-Nva-Cys]-NH2] (Pentanoyl-C[Cit]K(DOTA)HFP[Hyp]I[Nva]C-NH2; disulfide 1-10)",IC50,[1],≤ 10 nM
same,Kd,[2],< 1.58 nM
"CCCCC(=O)N[C@H]1CSSC[C@@H](C(N)=O)NC(=O)[C@H](CCC)NC(=O)[C@H]([C@@H](C)CC)NC(=O)[C@@H](CCC)NC(=O)[C@@H]2CCCN2C(=O)[C@H](Cc2ccccc2)NC(=O)[C@H](Cc2ccc(O)cc2)NC(=O)[C@H](CCC(N)=O)NC(=O)[C@H](CCCNC(=N)N)NC1=O [UPAR-322, Pent-[Cys-Arg-Gln-Tyr-Phe-Pro-nva-Ile-Nva-Cys]-NH2] (Pentanoyl-CRQYFP[dNva]I[Nva]C-NH2; disulfide 1-10)",IC50,[1],12.6 to 31.6 nM
same,Kd,[2],1.58 to 10 nM
"CCCCOC(=O)N[C@H]1CSSC[C@@H](C(N)=O)NC(=O)[C@H](CCC)NC(=O)[C@H]([C@@H](C)CC)NC(=O)[C@@H]2C[C@@H](O)CN2C(=O)[C@@H]2C[C@H](F)CN2C(=O)[C@H](Cc2ccccc2)NC(=O)[C@H](Cc2ccc(O)cc2)NC(=O)[C@H](CCCNC(=O)CN2CCN(CC(=O)O)CCN(CC(=O)O)CCN(CC(=O)O)CC2)NC(=O)[C@H]([C@@H](C)O)NC1=O [UPAR-192, Butoc-[Cys-Thr-Orn(DOTA)-Tyr-Phe-4Cfp-Hyp-Ile-Nva-Cys]-NH2] (Butoxycarbonyl-CT[Orn](DOTA)YF[Pro(cis-4-F)][Hyp]I[Nva]C-NH2; disulfide 1-10)",IC50,[1],≤ 10 nM
same,Kd,[2],< 1.58 nM
"CCCCC(=O)N[C@H]1CSSC[C@@H](C(N)=O)NC(=O)[C@H](CCC)NC(=O)[C@H]([C@@H](C)CC)NC(=O)CNC(=O)[C@@H]2CCCN2C(=O)[C@H](Cc2ccccc2)NC(=O)[C@H](Cc2ccc(O)cc2)NC(=O)[C@H](CCCCNC(=O)CN2CCN(CC(=O)O)CCN(CC(=O)O)CCN(CC(=O)O)CC2)NC(=O)[C@H](CCCNC(N)=O)NC1=O [UPAR-425, Pent-[Cys-Cit-Lys(DOTA)-Tyr-Phe-Pro-Gly-Ile-Nva-Cys]-NH2] (Pentanoyl-C[Cit]K(DOTA)YFPGI[Nva]C-NH2; disulfide 1-10)",IC50,[1],≤ 10 nM
same,Kd,[2]; single cycle kinetics,< 1.58 nM
"CCCCC(=O)N[C@H]1CSSC[C@@H](C(N)=O)NC(=O)[C@H](CCC)NC(=O)[C@H]([C@@H](C)CC)NC(=O)[C@@H]2C[C@@H](O)CN2C(=O)[C@@H]2CCCN2C(=O)[C@H](Cc2ccccc2)NC(=O)[C@H](Cc2ccc(O)cc2)NC(=O)[C@H](CCC(N)=O)NC(=O)[C@H](CCCNC(N)=O)NC1=O [UPAR-309, Pent-[Cys-Cit-Gln-Tyr-Phe-Pro-Hyp-Ile-Nva-Cys]-NHz] (Pentanoyl-C[Cit]QYFP[Hyp]I[Nva]C-NH2; disulfide 1-10)",IC50,[1],≤ 10 nM
same,Kd,[2],< 1.58 nM
"CC[C@H](C)[C@@H]1NC(=O)[C@@H](C)NC(=O)[C@@H]2CCCN2C(=O)[C@H](Cc2ccc(O)cc2)NC(=O)[C@H](Cc2ccc(O)cc2)NC(=O)[C@H](CCC(N)=O)NC(=O)[C@H](CCCNC(N)=O)NC(=O)[C@@H](NC(=O)CCC(C)C)CSSC[C@@H](C(N)=O)NC(=O)[C@H](CC(C)C)NC1=O [UPAR-343, iHex-[Cys-Cit-Gln-Tyr-Tyr-Pro-ala-Ile-Leu-Cys]-NH2] ({Pentanoyl(4-Me)}-C[Cit]QYYP[dA]ILC-NH2; disulfide 1-10)",IC50,[1],12.6 to 31.6 nM
same,Kd,[2],10 to 100 nM
"CCCCCC(=O)N[C@@H](CC(=O)O)C(=O)N[C@@H](CC(C)C)C(=O)N[C@H]1CSSC[C@@H](C(N)=O)NC(=O)[C@H](CC(C)C)NC(=O)[C@H]([C@@H](C)CC)NC(=O)[C@H](C)NC(=O)[C@@H]2CCCN2C(=O)[C@H](Cc2ccccc2)NC(=O)[C@H](Cc2ccc(O)cc2)NC(=O)[C@H](CCSC)NC(=O)[C@H](CCCCNC(=O)CN2CCN(CC(=O)O)CCN(CC(=O)O)CCN(CC(=O)O)CC2)NC1=O [UPAR-235, Hex-Asp-Leu-[Cys-Lys(DOTA)-Met-Tyr-Phe-Pro-Ala-Ile-Leu-Cys]-NH2] (Hexanoyl-DLCK(DOTA)MYFPAILC-NH2; disulfide 3-12)",IC50,[1],≤ 10 nM
same,Kd,[2],< 1.58 nM
"CCCC[C@@H]1NC(=O)[C@H](CCCNC(=N)N)NC(=O)[C@@H](NC(=O)[C@H](CC(C)C)NC(=O)[C@H](CC(=O)O)NC(C)=O)CSSC[C@@H](C(N)=O)NC(=O)[C@H](CC(C)C)NC(=O)[C@H]([C@@H](C)CC)NC(=O)[C@@H](C)NC(=O)[C@@H]2CCCN2C(=O)[C@H](Cc2ccccc2)NC(=O)[C@H](Cc2ccc(O)cc2)NC1=O [UPAR-406, Ac-Asp-Leu-[Cys-Arg-Nle-Tyr-Phe-Pro-ala-Ile-Leu-Cys]-NH2] (Ac-DLCR[Nle]YFP[dA]ILC-NH2; disulfide 3-12)",IC50,[1],≤ 10 nM
same,Kd,[2]; single cycle kinetics,< 1.58 nM
"CC(C)CCC(=O)N[C@H]1CSSC[C@@H](C(N)=O)NC(=O)[C@H](CC(C)C)NC(=O)[C@H](C)NC(=O)[C@@H](C)NC(=O)[C@@H]2CCCN2C(=O)[C@H](Cc2ccccc2)NC(=O)[C@H](Cc2ccc(O)cc2)NC(=O)[C@H](CCC(N)=O)NC(=O)[C@H](CCCNC(N)=O)NC1=O [UPAR-164, iHex-[Cys-Cit-Gln-Tyr-Phe-Pro-ala-Ala-Leu-Cys]-NH2] ({Pentanoyl(4-Me)}-C[Cit]QYFP[dA]ALC-NH2; disulfide 1-10)",IC50,[1],≥ 126 nM
same,Kd,[2],> 100 nM
"CC[C@H](C)[C@@H]1NC(=O)[C@H]2CCCN2C(=O)[C@@H]2CCCN2C(=O)[C@H](Cc2ccccc2)NC(=O)[C@H](Cc2ccc(O)cc2)NC(=O)[C@H](CCC(N)=O)NC(=O)[C@H](CCCNC(N)=O)NC(=O)[C@@H](NC(=O)CCC(C)C)CSSC[C@@H](C(N)=O)NC(=O)[C@H](CC(C)C)NC1=O [UPAR-305, iHex-[Cys-Cit-Gln-Tyr-Phe-Pro-pro-Ile-Leu-Cys]-NH2] ({Pentanoyl(4-Me)}-C[Cit]QYFP[dP]ILC-NH2; disulfide 1-10)",IC50,[1],≥ 126 nM
same,Kd,[2],> 100 nM
"CCCCOC(=O)N[C@H]1CSSC[C@@H](C(N)=O)NC(=O)[C@H](CCC)NC(=O)[C@H]([C@@H](C)CC)NC(=O)[C@@H]2C[C@@H](O)CN2C(=O)[C@@H]2CCCN2C(=O)[C@H](Cc2cccs2)NC(=O)[C@H](Cc2ccc(O)cc2)NC(=O)[C@H](CCCCNC(=O)CN2CCN(CC(=O)O)CCN(CC(=O)O)CCN(CC(=O)O)CC2)NC(=O)[C@H]([C@@H](C)O)NC1=O [UPAR-134, Butoc-[Cys-Thr-Lys(DOTA)-Tyr-Thi-Pro-Hyp-Ile-Nva-Cys]-NH2] (Butoxycarbonyl-CTK(DOTA)Y[2Thi]P[Hyp]I[Nva]C-NH2; disulfide 1-10)",IC50,[1],≤ 10 nM
same,Kd,[2],< 1.58 nM
